“And” between values parts separate entries of the source, which are not always exact repeats. Equal entries are not always repeated. Structures can show the parent of a compound that is named as a salt. Where two headings read alike, the source gives them in different places.
Tests used:
[1] = target: T1, histamine (H1) receptor (Cavia porcellus, UniProt P31389); test: Antagonism of histamine-induced contraction of isolated guinea pig ileum; assay type: tissue-based; details: histamine final concentration 0.2 μg/ml, 50% reduction of contractile response, read-out: Inhibition IC50 (μM) of histamine-induced contraction
T1 construct: contraction of isolated guinea pig ileum; from tissue; host or cells: isolated guinea pig ileum
T1 sequence (P31389 whole entry): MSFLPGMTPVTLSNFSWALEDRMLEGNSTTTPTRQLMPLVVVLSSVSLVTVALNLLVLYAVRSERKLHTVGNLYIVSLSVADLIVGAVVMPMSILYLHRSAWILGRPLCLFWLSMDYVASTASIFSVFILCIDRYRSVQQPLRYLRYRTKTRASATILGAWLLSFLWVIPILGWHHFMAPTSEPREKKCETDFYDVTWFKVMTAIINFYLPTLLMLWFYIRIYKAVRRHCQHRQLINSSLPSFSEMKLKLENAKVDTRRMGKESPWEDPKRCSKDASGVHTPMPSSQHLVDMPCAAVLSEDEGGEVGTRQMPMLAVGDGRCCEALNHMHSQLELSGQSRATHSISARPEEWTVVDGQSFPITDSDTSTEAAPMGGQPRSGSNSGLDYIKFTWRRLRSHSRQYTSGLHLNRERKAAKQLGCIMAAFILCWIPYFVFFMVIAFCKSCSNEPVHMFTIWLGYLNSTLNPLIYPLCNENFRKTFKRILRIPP
Text: Certain compounds of formula I inhibit in vitro the histamine-induced contraction of isolated guinea pig ileum and are useful in warm-blooded animals for antagonizing the action of histamine at the histamine (H1) receptor. Accordingly, these compounds can be employed in a conventional manner as antihistamine agents for the treatment of allergic disorders, for example allergic rhinitis, vasomotor rhinitis, allergic conjunctivitis, hay fever, urticaria, and food allergies.
The antagonism of the effects of histamine on the contraction of isolated guinea pig ileum by the compounds of formula I can be determined by the procedure of G. Possanza, A. Bauen, and P. Stewart, Int. Arch. Allergy Appl. Immunol., 49, 289 (1975). The degree of inhibition is determined as the difference between the contraction caused by histamine (final concentration 0.2 μg/ml) alone and that seen in the presence of both histamine and the test compound. The inhibitory activity of the test compound is expressed as that concentration of the compound which causes a 50% reduction of the contractile response (IC50).

[2] = test system: guinea pig basophils; test: Inhibition of histamine release from guinea pig basophils, Procedure C; assay type: cell-based; details: Cavia porcellus, 1 h, read-out: In Vitro Inhibition of Histamine Release IC50 (μM) Procedure C
Description: C. Procedure for Determining Inhibition of Histamine Release from Guinea Pig Basophils
1. In Vivo Sensitization: Male Hartley guinea pigs (200-300 gm) are immunized on day 0 with two 0.05 ml intradermal injections of 200 μg ovalbumin. Sensitized basophils are available between days 13-25 post-sensitization. This mode of sensitization favors IgE response.
2. Separation of Leukocytes: The method of Lett-Brown et al., Int. Arch. Allergy, Appl. Immun. 64, 241 (1981) is used. Animals are anesthetized with ether and are bled via cardiac puncture, with plastic syringes containing sufficient EDTA to provide a final concentration of 10 mM.
One part of 3% gelatin in saline at 37° C. is mixed with 2 parts of blood in a 16×150 mm tube. The cells are allowed to sediment at a 30° angle for 45 minutes in a 37° C. water bath. The leukocyte-rich plasma is collected and centrifuged at 150×g for 30 minutes at room temperature. The pelleted cells are washed in Hepes-buffered saline (HG) containing 4 mM EDTA and resuspended in Hepes-buffered saline containing […] and Ca^++ (HGCM) at 4-5×10^6 cells/ml.
3. Reaction Mixture: The reaction is carried out in 12×75 mm plastic tubes and a total volume of 1.2 ml which includes 0.5 ml of antigen, 0.2 ml of drug solution at concentrations ranging from 10-1000 μM and 0.5 ml of prewashed cell suspension. The reaction mixture is incubated in a 37° C. shaking water bath for 60 minutes. Upon completion of the reaction, the tubes are centrifuged and the supernatants collected. The protein is removed from the supernatants by precipitation with 0.2 ml of 8% perchloric acid.
4. Histamine Assay: Histamine release is measured by the automated fluorometric method of Siraganian, supra. The concentration which causes a 50 percent inhibition of histamine release is computed as in Part A.

[3] = test system: human leukocytes (basophils); test: Inhibition of IgE-mediated histamine release from human leukocytes (basophils), Procedure A; assay type: cell-based; details: Leukocyte, 1 h, read-out: In Vitro Inhibition of Histamine Release IC50 (μM) Procedure A
Description: A. Procedure for Determining Inhibition of Histamine Release from Human Leukocytes (Basophils)
Separation of Leukocytes: A modification of the method of L. Lichtenstein and A. Osler, J. Exp. Med. 120, 507 (1964) is used. Heparinized human blood (80-100 ml) is mixed with 20 ml of saline (0.2%) containing 0.6 gm of dextrose and 1.2 gm of dextran in propylene centrifuge tubes. The mixture is kept at ambient temperature for 60-90 minutes to allow the separation of erythrocytes from the platelet-leukocyte-rich supernate. The supernate is removed and centrifuged for 8 minutes at 110 ×g in cold. The leukocyte pellet is washed twice with Tris buffer and finally suspended in 150-180 ml Tris-ACM buffer at 1-2 ×10^6 cells/ml.
Reaction Mixture: The reaction is carried out in 12×75 mm plastic tubes at a total volume of 1.23 ml. The reaction medium includes 0.05 ml rabbit anti-human IgE (the antigen), 0.2 ml of the test compound in water at concentrations ranging from 10-100 μM, and 1.0 ml of the leukocyte suspension. The reaction mixture is incubated in a 37° C. shaking water bath for 60 minutes. Upon completion of the reaction, the tubes are centrifuged and the supernatants collected. The protein is removed from the supernatants by precipitation with 0.2 ml of 8% perchloric acid.
Histamine Assay: Histamine release is measured by the automated fluorometric method of W. Siraganian and W. Hook in Chapter 102 of the Manual of Clinical Immunology, 2nd Edition, edited by R. Rose and H. Friedman, published by the American Society for Microbiology, Washington, D.C., 1980. Percent inhibition is calculated as follows: [formula]
The concentration which causes a 50 percent inhibition (IC50) of histamine release is interpolated from a plot of percent inhibition versus logarithm of drug concentration.

[4] = test system: rat peritoneal mast cells; test: Inhibition of histamine release from rat peritoneal mast cells, Procedure B; assay type: cell-based; details: Mast cell, 1 h, read-out: In Vitro Inhibition of Histamine Release IC50 (μM) Procedure B
Description: B. Procedure for Determining Inhibition of Histamine Release from Rat Peritoneal Mast Cells
Harvest of Peritoneal Mast Cells: After the rats are sacrificed with ether, 20 ml of Minimum Essential Medium (MEM) containing 20 units/ml heparin is injected into the peritoneum. The abdomen is massaged for one minute and the lavage fluid collected. The peritoneal cells are centrifuged at 1800 rpm for 8 minutes in cold. After two washes with Tris A buffer, the cells are resuspended in Tris ACM buffer at 2-4×10^6 cells/ml.
Reaction mixture: The reaction is carried out in 12×75 mm plastic tubes at a total volume of 1.25 ml. The reaction mixture includes 0.5 ml (10-1000 μg) sheep anti-rat IgE or ovalbumin, 0.2 ml of the test compound in water at concentrations ranging from 10-1000 μM, 0.5 ml phosphatidylserine solution (20-60 μg to each tube), and 0.5 ml of cell suspension.
The concentration which causes a 50% inhibition (IC50) of histamine release is computed as in Part A.

[5] = from guinea pig basophils (ovalbumin-sensitized), 60 min at 37° C., > = no response detected at highest dose indicated
[6] = from human basophils, rabbit anti-human IgE as antigen, 60 min at 37° C., > = no response detected at highest dose indicated
[7] = from rat peritoneal mast cells, sheep anti-rat IgE or ovalbumin, 60 min at 37° C.

Work on `O=C(NC1CCCCC1)SCCCN1CCN(Cc2ccc(Cl)cc2)CC1` [Example 6, N-Cyclohexyl-S-{3-[4-(4-chlorobenzyl)piperazin-1-yl]propyl}thiocarbamate dihydrochloride] yielded an IC50 [1] of 0.06 µM, an IC50 [2, 5] of 20 µM and an IC50 [3, 6] of 5 µM. The IC50 [4, 7] was 3 µM.

For `COc1ccc(NC(=O)SCCCN2CCN(CCc3ccc(Cl)cc3)CC2)cc1` [Example 28, N-(4-Methoxyphenyl)-S-{3-[4-(4-chlorophenethyl)piperazin-1-yl]propyl}thiocarbamate dihydrochloride], the IC50 [1] was 0.12 µM and 0.09 µM, the IC50 [2, 5] was 40 µM and the IC50 [3, 6] was 5 µM. It also gave an IC50 [4, 7] of 7 µM.

With `CCCCc1ccc(NC(=O)SCCCN2CCN(CCCc3ccc(Cl)cc3)CC2)cc1` [Example 33, N-(4-n-Butylphenyl)-S-{3-[4-[3-(4-chlorophenyl)propyl]piperazin-1-yl]propyl}thiocarbamate dihydrochloride] the IC50 [2, 5] was 14 µM, the IC50 [3, 6] was 5 µM and the IC50 [4, 7] was 2 µM.

In the case of `SCCN1CCN(Cc2ccc(Cl)cc2)CC1` [Example 36, 2-[4-(4-Chlorobenzyl)piperazin-1-yl]ethanethiol dihydrochloride], the IC50 [2] is reported as greater than 100 µM, the IC50 ([3]; Homo sapiens) is reported as 3 µM and the IC50 ([4]; Rattus norvegicus) is reported as 5 µM.

— patent publication US4618677A, “Substituted phenylalkyl-(piperazinyl or homopiperazinyl)alkyl-thiols and -thiocarbamates useful for the treatment of immunological, inflammatory, and allergic disorders” (Boehringer Ingelheim Limited, priority 1984, dated 1986)
